According to PubChem BioAssay AID330 (DTP/NCI, 2004):
Values joined by “and” are separate entries in the source; they are usually repeats but may differ in a detail not shown here. Equal entries are not always repeated. Inconclusive results and toxic doses are left out.

System: P388 leukemia ip, CD2F1 mice, survival T/C
Assay: NCI In Vivo Anticancer Drug Screen. Data for tumor model P388 Leukemia (intraperitoneal) in CD2F1 (CDF1) mice
Conditions: endpoint: median survival time, higher = longer survival
Summary of the method: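 Mice carrying the transplanted tumor received test compound or vehicle. Survival was recorded in each group, and the value is the treated-group measurement divided by that of the vehicle-treated control group.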

[1] = dose: 12.5 mg/kg/injection, schedule: Q01DX009 (ip), vehicle: saline
[2] = dose: 50.0 mg/kg/injection, schedule: Q01DX005 (ip), vehicle: saline with Tween-80
[3] = dose: 100.0 mg/kg/injection, schedule: Q01DX005 (ip), vehicle: saline with Tween-80
[4] = dose: 200.0 mg/kg/injection, schedule: Q01DX005 (ip), vehicle: saline with Tween-80
[5] = dose: 50.0 mg/kg/injection, schedule: Q01DX009 (ip), vehicle: saline
[6] = dose: 100.0 mg/kg/injection, schedule: Q01DX009 (ip), vehicle: saline
[7] = dose: 200.0 mg/kg/injection, schedule: Q01DX009 (ip), vehicle: saline
[8] = dose: 50.0 mg/kg/injection, schedule: Q01DX009 (ip), vehicle: Klucel (hydroxypropylcellulose) (HPC)
[9] = dose: 100.0 mg/kg/injection, schedule: Q01DX009 (ip), vehicle: Klucel (hydroxypropylcellulose) (HPC)
[10] = dose: 200.0 mg/kg/injection, schedule: Q01DX009 (ip), vehicle: Klucel (hydroxypropylcellulose) (HPC)
[11] = dose: 100.0 mg/kg/injection, schedule: Q01DX009 (ip), vehicle: saline with Tween-80
[12] = dose: 200.0 mg/kg/injection, schedule: Q01DX009 (ip), vehicle: saline with Tween-80
[13] = dose: 50.0 mg/kg/injection, schedule: Q01DX009 (ip), vehicle: saline with Tween-80

SMILES: ClCCN(CCCl)CCNc1ccnc2cc(Cl)ccc12
- T/C (dose: 0.1 mg/kg/injection, schedule: Q01DX009 (ip), vehicle: saline): 104 % of control
- T/C (dose: 0.2 mg/kg/injection, schedule: Q01DX009 (ip), vehicle: saline): 90 % of control
- T/C (dose: 0.38 mg/kg/injection, schedule: Q01DX009 (ip), vehicle: saline): 114 % of control
- T/C (dose: 0.5 mg/kg/injection, schedule: Q01DX009 (ip), vehicle: saline sonified): 90 % of control
- T/C (dose: 0.58 mg/kg/injection, schedule: Q01DX009 (ip), vehicle: saline): 114 % of control
- T/C (dose: 0.88 mg/kg/injection, schedule: Q04DX003 (ip), vehicle: saline): 118 % of control
- T/C (dose: 1.0 mg/kg/injection, schedule: Q01DX009 (ip), vehicle: saline sonified): 118 % of control
- T/C (dose: 2.0 mg/kg/injection, schedule: Q04DX003 (ip), vehicle: saline): 118 % of control
- T/C (dose: 4.4 mg/kg/injection, schedule: Q01DX009 (ip), vehicle: saline): 166 % of control

SMILES: CCOC(=O)N1CCC(n2nncc2OCC)CC1
- T/C (dose: 100.0 mg/kg/injection, schedule: Q04DX002 (ip), vehicle: Klucel (hydroxypropylcellulose) (HPC)): 102 % of control
- T/C (dose: 200.0 mg/kg/injection, schedule: Q04DX002 (ip), vehicle: Klucel (hydroxypropylcellulose) (HPC)): 102 % of control
- T/C (dose: 400.0 mg/kg/injection, schedule: Q04DX002 (ip), vehicle: Klucel (hydroxypropylcellulose) (HPC)): 105 % of control

SMILES: CCCC(=O)Nc1ccc(C2=NNC(=O)C3CC23)cc1 (stereo not given)
- T/C (dose: 50.0 mg/kg/injection, schedule: Q01DX005 (ip), vehicle: saline + Tween-80 + alcohol): 99 % of control
- T/C (dose: 100.0 mg/kg/injection, schedule: Q01DX005 (ip), vehicle: saline + Tween-80 + alcohol): 99 % of control
- T/C (dose: 200.0 mg/kg/injection, schedule: Q01DX005 (ip), vehicle: saline + Tween-80 + alcohol): 97 % of control

SMILES: C[n+]1c(-c2cccc3ccccc23)c2cc(N)ccc2c2ccccc21
- T/C (dose: 0.78 mg/kg/injection, schedule: Q01DX009 (ip), vehicle: water): 110 % of control
- T/C (dose: 1.56 mg/kg/injection, schedule: Q01DX009 (ip), vehicle: saline): 103 % of control and 113 % of control
- T/C (dose: 1.56 mg/kg/injection, schedule: Q01DX009 (ip), vehicle: water): 119 % of control
- T/C (dose: 3.12 mg/kg/injection, schedule: Q01DX009 (ip), vehicle: saline): 105 % of control
- T/C (dose: 6.25 mg/kg/injection, schedule: Q01DX009 (ip), vehicle: saline): 112 % of control and 122 % of control
- T/C (dose: 12.0 mg/kg/injection, schedule: Q01DX009 (ip), vehicle: water): 110 % of control
- T/C [1]: 117 % of control and 121 % of control

SMILES: Cc1ccc(S(=O)(=O)NN=C(C(=O)O)C(=O)O)cc1
- T/C (dose: 12.5 mg/kg/injection, schedule: Q01DX009 (ip), vehicle: distilled water + Tween-80): 101 % of control
- T/C (dose: 25.0 mg/kg/injection, schedule: Q01DX009 (ip), vehicle: distilled water + Tween-80): 102 % of control
- T/C (dose: 50.0 mg/kg/injection, schedule: Q01DX009 (ip), vehicle: distilled water + Tween-80): 100 % of control
- T/C (dose: 200.0 mg/kg/injection, schedule: Q01DX009 (ip), vehicle: distilled water + Tween-80): 90 % of control

SMILES: O=[N+]([O-])c1ccc(-c2csc(=[N+]3CCCCC3)s2)cc1
- T/C (dose: 6.25 mg/kg/injection, schedule: Q01DX009 (ip), vehicle: water): 106 % of control and 114 % of control
- T/C (dose: 12.5 mg/kg/injection, schedule: Q01DX009 (ip), vehicle: water): 114 % of control

SMILES: COc1cccc(/C=N/NP(=S)(Oc2ccc(C(C)(C)C)cc2)Oc2ccc(C(C)(C)C)cc2)c1OC
- T/C [2]: 98 % of control
- T/C [3]: 95 % of control
- T/C [4]: 100 % of control

SMILES: CC(C)=NNC1=NC(C)(C)P(=O)(NCC(=O)O)S1 (stereo not given)
- T/C (dose: 60.0 mg/kg/injection, schedule: Q01DX005 (ip), vehicle: saline): 103 % of control
- T/C (dose: 120.0 mg/kg/injection, schedule: Q01DX005 (ip), vehicle: saline): 103 % of control
- T/C (dose: 240.0 mg/kg/injection, schedule: Q01DX005 (ip), vehicle: saline): 100 % of control

SMILES: CC1(C)N=C(N)N=C(N)N1c1ccc(Cl)cc1Cl
- T/C (dose: 12.0 mg/kg/injection, schedule: Q01DX005 (ip), vehicle: saline): 102 % of control
- T/C (dose: 25.0 mg/kg/injection, schedule: Q01DX005 (ip), vehicle: saline): 100 % of control
- T/C (dose: 50.0 mg/kg/injection, schedule: Q01DX005 (ip), vehicle: saline): 104 % of control and 98 % of control

SMILES: C[Si](C)(C)C#CCO
- T/C [2]: 101 % of control
- T/C [3]: 100 % of control
- T/C [4]: 105 % of control

SMILES: CC1CCC(c2ccoc2)N2C1CCC(C)(Sc1ccccc1)C2O (stereo not given)
- T/C (dose: 5.5 mg/kg/injection, schedule: Q01DX004 (ip), vehicle: DMSO): 95 % of control
- T/C (dose: 11.0 mg/kg/injection, schedule: Q01DX004 (ip), vehicle: DMSO): 115 % of control
- T/C (dose: 22.0 mg/kg/injection, schedule: Q01DX004 (ip), vehicle: DMSO): 113 % of control
- T/C (dose: 25.0 mg/kg/injection, schedule: Q01DX001 (ip), vehicle: other): 103 % of control
- T/C (dose: 44.0 mg/kg/injection, schedule: Q01DX004 (ip), vehicle: DMSO): 105 % of control
- T/C (dose: 50.0 mg/kg/injection, schedule: Q01DX001 (ip), vehicle: other): 98 % of control
- T/C (dose: 100.0 mg/kg/injection, schedule: Q01DX001 (ip), vehicle: other): 98 % of control

SMILES: CCC(C)(O)P(=O)(O)O (stereo not given)
- T/C [5]: 98 % of control
- T/C [6]: 98 % of control
- T/C [7]: 95 % of control

SMILES: COc1c(C(C)(C)C)cc(C(C)(C)C)c(OC)c1Br
- T/C [8]: 100 % of control
- T/C [9]: 94 % of control
- T/C [10]: 87 % of control

SMILES: Cc1nn(C(=O)c2ccncc2)c(C)c1N=Nc1ccccc1[N+](=O)[O-]
- T/C [8]: 102 % of control
- T/C [9]: 96 % of control
- T/C [10]: 98 % of control

SMILES: CCOC(=O)c1sc(N)c(C(=O)OCC)c1C
- T/C [11]: 86 % of control

SMILES: CCOP(=O)(NNP(=O)(OCC)OCC)OCC
- T/C [5]: 106 % of control
- T/C [6]: 103 % of control
- T/C [7]: 104 % of control

SMILES: C=C(C)C1Cc2c(ccc3c2OC2COc4cc(OC)c(OC)cc4C2C3=O)O1 (stereo not given)
- T/C [11]: 86 % of control
- T/C [12]: 95 % of control
- T/C (dose: 400.0 mg/kg/injection, schedule: Q01DX009 (ip), vehicle: saline with Tween-80): 95 % of control

SMILES: CNc1ccccc1C(=O)NCCCN
- T/C (dose: 50.0 mg/kg/injection, schedule: Q01DX005 (ip), vehicle: Klucel (hydroxypropylcellulose) (HPC)): 98 % of control
- T/C (dose: 100.0 mg/kg/injection, schedule: Q01DX005 (ip), vehicle: Klucel (hydroxypropylcellulose) (HPC)): 95 % of control
- T/C (dose: 200.0 mg/kg/injection, schedule: Q01DX005 (ip), vehicle: Klucel (hydroxypropylcellulose) (HPC)): 95 % of control

SMILES: CCOC(=O)c1c(NC(=S)NC)sc2c1CCCC2
- T/C [13]: 106 % of control
- T/C [11]: 108 % of control
- T/C [12]: 91 % of control

SMILES: COCC1(C)CCCC2(C)C1CCC13CCCCC12O3 (stereo not given)
- T/C (dose: 100.0 mg/kg/injection, schedule: Q01DX001 (ip), vehicle: Klucel (hydroxypropylcellulose) (HPC)): 100 % of control
- T/C (dose: 200.0 mg/kg/injection, schedule: Q01DX001 (ip), vehicle: Klucel (hydroxypropylcellulose) (HPC)): 100 % of control
- T/C (dose: 400.0 mg/kg/injection, schedule: Q01DX001 (ip), vehicle: Klucel (hydroxypropylcellulose) (HPC)): 100 % of control

SMILES: COc1ccc(OCC2CN(C)CCC2c2ccccc2)cc1 (stereo not given)
- T/C [1]: 99 % of control
- T/C (dose: 25.0 mg/kg/injection, schedule: Q01DX009 (ip), vehicle: saline): 100 % of control
- T/C [5]: 101 % of control and 94 % of control

SMILES: CC(C)CCc1cc(O)ccc1O
- T/C (dose: 25.0 mg/kg/injection, schedule: Q01DX009 (ip), vehicle: saline with Tween-80): 114 % of control
- T/C [13]: 101 % of control
- T/C [11]: 98 % of control
- T/C [12]: 97 % of control

SMILES: Cc1c([O-])[n+](Cc2ccccc2)nn1C
- T/C (dose: 25.0 mg/kg/injection, schedule: Q01DX009 (ip), vehicle: water): 89 % of control

SMILES: O=C(Nc1ccc(OCc2ccccc2)cc1)c1cc2c(cc1Br)OCO2
- T/C (dose: 25.0 mg/kg/injection, schedule: Q01DX009 (ip), vehicle: other): 106 % of control
- T/C (dose: 50.0 mg/kg/injection, schedule: Q01DX009 (ip), vehicle: other): 104 % of control
- T/C (dose: 100.0 mg/kg/injection, schedule: Q01DX009 (ip), vehicle: other): 106 % of control
- T/C (dose: 200.0 mg/kg/injection, schedule: Q01DX009 (ip), vehicle: other): 100 % of control
- T/C (dose: 400.0 mg/kg/injection, schedule: Q01DX009 (ip), vehicle: other): 100 % of control
